# Several values for one entry are separate records, joined by “and”; a condition that tells them apart may be missing. Identical values can stand only once. Like-named read-outs stand apart in the source and are kept apart here.
# Assays:
# CRAF^WT = CRAF^WT (Homo sapiens, UniProt P04049); assay: ATP and MEK titrations by TR-FRET (Michaelis constants, substrate inhibition)
# BRAF^KD = BRAF^KD (Homo sapiens, UniProt P15056); assay: as above
# ARAF^SSDD = target: T1, ARAF^SSDD (Homo sapiens, UniProt P10398, G300S/Y301D/Y302D); assay: as above
# T1 sequence (P10398 274-606 G300S/Y301D/Y302D): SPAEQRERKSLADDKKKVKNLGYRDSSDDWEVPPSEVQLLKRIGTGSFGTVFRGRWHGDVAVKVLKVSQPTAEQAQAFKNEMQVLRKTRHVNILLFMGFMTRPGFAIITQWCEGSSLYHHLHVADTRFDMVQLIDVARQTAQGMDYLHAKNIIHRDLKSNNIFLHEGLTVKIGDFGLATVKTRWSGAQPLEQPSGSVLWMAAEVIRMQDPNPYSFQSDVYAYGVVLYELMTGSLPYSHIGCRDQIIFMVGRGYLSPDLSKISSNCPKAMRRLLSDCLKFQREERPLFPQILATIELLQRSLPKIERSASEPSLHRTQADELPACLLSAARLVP
# CRAF^SSDD = CRAF^SSDD (Homo sapiens, UniProt P04049, Y340D/Y341D); assay: as above
# BRAF^WT = target: T2, BRAF^WT (Homo sapiens, UniProt P15056); assay: as above; type: biochemical; details: apparent Ki of substrate inhibition by ATP
# T2 construct: His6 (N); made in house; host or cells: SF9 insect cells (baculovirus)
# BRAF^V600E = BRAF^V600E (Homo sapiens, UniProt P15056, V600E); assay: as above
# [1] = target: T3, ARAF^SSDD (MEK1^SASA:ARAF^SSDD-14-3-3ε dimer complex) (Homo sapiens, UniProt P10398, G300S/Y301D/Y302D); assay: TR-FRET kinase inhibition assay (phosphorylation of biotinylated MEK1), ARAF dimer complex; type: biochemical; details: for IC50: 10 nM enzyme, 250 nM MEK1, 200 μM ATP, 40 min preincubation, 30 min reaction; for ARAF^SSDD nH (Hill slope): four-parameter fit, 200 μM ATP; for cooperativity of inhibition of ARAF^SSDD: from Hill constants, less than −1.0 indicates positive cooperativity
# T3 construct: ARAF^274-606, G300S, Y301/302D-14-3-3 ε with N-terminal His6 and StrepII tags; His6 (N); StrepII (N); made in house; host or cells: SF9 insect cells (baculovirus)
# T3 sequence (P10398 274-606 G300S/Y301D/Y302D): T1 sequence (P10398 274-606 G300S/Y301D/Y302D)
# [2] = target: T4, CRAF^WT (MEK1:CRAF^WT:14-3-3 dimer complex) (Homo sapiens, UniProt P04049); assay: TR-FRET kinase inhibition assay (phosphorylation of biotinylated MEK1), CRAF WT dimer complex; type: biochemical; details: for CRAF^WT nH (Hill slope): four-parameter fit, 200 μM ATP; for CRAF^WT IC50 / IC50: 4 nM enzyme, 250 nM MEK1, 200 μM ATP, 40 min preincubation, 30 min reaction; for IC50: read-out: CRAF^WT IC50
# T4 construct: His6 (N); made in house; host or cells: insect cells (baculovirus)
# [3] = target: T5, BRAF^WT (MEK1^SASA:BRAF^WT:14-3-3 dimer complex) (Homo sapiens, UniProt P15056); assay: biochemical; type: biochemical; details: for effect of increasing ATP concentration on IC50 for BRAF^WT dimers: 10, 100, 1000 μM ATP
# T5 construct: His6 (N); made in house; host or cells: SF9 insect cells (baculovirus)
# [4] = target: T6, CRAF^SSDD (MEK1^SASA:CRAF^SSDD:14-3-3 dimer complex) (Homo sapiens, UniProt P04049, Y340D/Y341D); assay: TR-FRET kinase inhibition assay (phosphorylation of biotinylated MEK1), CRAF SSDD dimer complex; type: biochemical; details: for CRAF^SSDD nH (Hill slope): four-parameter fit, 200 μM ATP; for CRAF^SSDD IC50: 1 nM enzyme, 250 nM MEK1, 200 μM ATP, 40 min preincubation, 30 min reaction; for IC50: read-out: CRAF^SSDD IC50
# T6 construct: His6 (N); StrepII (N); made in house; host or cells: insect cells (baculovirus)
# [5] = target: T7, BRAF^V600E (MEK1^SASA:BRAF^V600E monomer complex) (Homo sapiens, UniProt P15056, V600E); assay: TR-FRET kinase inhibition assay (phosphorylation of biotinylated MEK1), BRAF V600E monomer complex; type: biochemical
# T7 construct: His6 (N); intein (C, cleaved yes); made in house; host or cells: insect cells (baculovirus)
# [6] = system: CRAF^WT (MEK1:CRAF^WT:14-3-3 dimer complex); assay: TR-FRET kinase inhibition assay (phosphorylation of biotinylated MEK1), CRAF WT dimer complex; type: biochemical; details: IC50 ratio ARAF/CRAF
# [7] = 1 nM enzyme, 250 nM MEK1, 200 μM ATP, 40 min preincubation, 30 min reaction, read-out: BRAF^WT IC50
# [8] = IC50 of BRAF^WT at 10 μM ATP, 10 μM ATP
# [9] = IC50 of BRAF^WT at 1000 μM ATP, 1000 μM ATP
# T5 sequence (P15056 419-766, one chain of several): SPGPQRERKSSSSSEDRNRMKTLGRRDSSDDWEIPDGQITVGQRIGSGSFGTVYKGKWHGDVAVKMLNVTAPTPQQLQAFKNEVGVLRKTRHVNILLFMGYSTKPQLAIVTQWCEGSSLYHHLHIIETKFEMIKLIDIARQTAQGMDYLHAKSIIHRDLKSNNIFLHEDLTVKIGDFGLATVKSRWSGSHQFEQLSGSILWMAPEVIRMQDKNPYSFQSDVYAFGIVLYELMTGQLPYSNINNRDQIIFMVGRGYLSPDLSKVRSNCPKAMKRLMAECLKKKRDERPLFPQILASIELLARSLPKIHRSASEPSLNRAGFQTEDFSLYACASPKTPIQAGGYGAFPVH
# T2 sequence (P15056 419-766): as the sequence (P15056 419-766, one chain of several) above
structure (smiles),measurement,setting,value
Nc1ncnc2c1ncn2[C@@H]1O[C@H](COP(=O)(O)OP(=O)(O)OP(=O)(O)O)[C@@H](O)[C@H]1O [ATP],Ki,"CRAF^WT; read-out: Ki-ATP, CRAF^WT, apparent Ki of substrate inhibition by ATP",> 15000 µM
same,Km,"CRAF^WT; read-out: Km-ATP, CRAF^WT, ATP titration, substrate inhibition fit",1.56 ± 1.5 µM
same,"Km-ATP, BRAF^KD","BRAF^KD; ATP titration, substrate inhibition fit",0.18 ± 0.04 µM
same,Ki,"BRAF^KD; read-out: Ki-ATP, BRAF^KD, apparent Ki of substrate inhibition by ATP",3530 ± 580 µM
same,Ki,"ARAF^SSDD; read-out: Ki-ATP, ARAF^SSDD, apparent Ki of substrate inhibition by ATP",> 15000 µM
same,Km,"ARAF^SSDD; read-out: Km-ATP, ARAF^SSDD, ATP titration, substrate inhibition fit",1.58 ± 0.19 µM
same,Ki,"CRAF^SSDD; read-out: Ki-ATP, CRAF^SSDD, apparent Ki of substrate inhibition by ATP",> 15000 µM
same,Km,"CRAF^SSDD; read-out: Km-ATP, CRAF^SSDD, ATP titration, substrate inhibition fit",0.73 ± 0.38 µM
same,Ki,BRAF^WT,4840 ± 2850 µM
same,Ki,"BRAF^V600E; read-out: Ki-ATP, BRAF^V600E, apparent Ki of substrate inhibition by ATP",6340 ± 4070 µM
same,Km,"BRAF^V600E; read-out: Km-ATP, BRAF^V600E, ATP titration, substrate inhibition fit",12.6 ± 7.8 µM
Cc1ccc(NC(=O)c2cccc(C(C)(C)C#N)c2)cc1Nc1ccc2ncn(C)c(=O)c2c1 [AZ628],IC50,[1],0.0441 ± 0.0212 µM
same,ARAF^SSDD nH (Hill slope),[1],−1.8
same,cooperativity of inhibition of ARAF^SSDD,[1],clear positive cooperativity
same,CRAF^WT nH (Hill slope),[2],−1.1
same,BRAF^WT nH (Hill slope),"[3]; four-parameter fit, 200 μM ATP",−3.1
same,CRAF^SSDD nH (Hill slope),[4],−2.6
Cc1ccc2c(Nc3cccc(Cl)c3F)nccc2c1NC(=O)c1csc2c(N)ncnc12 [Belvarafenib],IC50,[1],0.0699 ± 0.032 µM
same,ARAF^SSDD nH (Hill slope),[1],−1.3
same,IC50,[5],0.0133 ± 0.00087 µM
same,CRAF^WT IC50,[2],single-digit nanomolar
same,IC50,[2],0.00505 ± 0.00181 µM
same,CRAF^WT nH (Hill slope),[2],−1.6
same,IC50,[3]; [7],0.0199 ± 0.00098 µM
same,effect of increasing ATP concentration on IC50 for BRAF^WT dimers,[3],only modestly affected
same,IC50,[3]; [8],0.0142 ± 0.00636 µM
same,IC50,"[3]; IC50 of BRAF^WT at 100 μM ATP, 100 μM ATP",0.0215 ± 0.00923 µM
same,IC50,[3]; [9],0.0293 ± 0.00875 µM
same,BRAF^WT nH (Hill slope),"[3]; four-parameter fit, 200 μM ATP",−3.0
same,CRAF^SSDD IC50,[4],single-digit nanomolar
same,CRAF^SSDD nH (Hill slope),[4],−3.0
same,IC50,[4],0.00566 ± 0.00112 µM
CC(C)(C)c1nc(-c2cccc(NS(=O)(=O)c3c(F)cccc3F)c2F)c(-c2ccnc(N)n2)s1 [Dabrafenib],IC50,[1],0.009 µM and 0.00858 µM
same,ARAF^SSDD nH (Hill slope),[1],−1.1
same,CRAF^WT nH (Hill slope),[2],−0.9
same,BRAF^WT nH (Hill slope),"[3]; four-parameter fit, 200 μM ATP",−1.4
same,CRAF^SSDD nH (Hill slope),[4],−1.0
OCCn1cc(-c2ccc3c(c2)CC/C3=N\O)c(-c2ccncc2)n1 [GDC0879],ARAF^SSDD nH (Hill slope),[1],−0.4
same,CRAF^WT nH (Hill slope),[2],−1.0
same,BRAF^WT nH (Hill slope),[3],−0.9
same,CRAF^SSDD nH (Hill slope),[4],−0.7
CNc1ncc2cc(-c3cc(NC(=O)NCCC(C)(C)C)c(F)cc3C)c(C)nc2n1 [LY3009120],ARAF^SSDD nH (Hill slope),[1],−3.6
same,cooperativity of inhibition of ARAF^SSDD,[1],clear positive cooperativity
same,CRAF^WT nH (Hill slope),[2],−1.4
same,BRAF^WT nH (Hill slope),"[3]; four-parameter fit, 200 μM ATP",−2.2
same,CRAF^SSDD nH (Hill slope),[4],−2.9
Cc1ccc(NC(=O)c2ccnc(C(F)(F)F)c2)cc1-c1cc(OCCO)nc(N2CCOCC2)c1 [Naporafenib],IC50,[1],0.161 ± 0.0192 µM
same,ARAF^SSDD nH (Hill slope),[1],−3.2
same,cooperativity of inhibition of ARAF^SSDD,[1],clear positive cooperativity
same,IC50,[5],0.0513 ± 0.00116 µM
same,CRAF^WT IC50,[2],single-digit nanomolar
same,IC50,[2],0.00546 ± 0.00267 µM
same,CRAF^WT nH (Hill slope),[2],−1.9
same,fold greater potency against CRAF dimers than ARAF dimers,[6],approximately 30 fold
same,IC50,[3]; [7],0.0371 ± 0.023 µM
same,effect of increasing ATP concentration on IC50 for BRAF^WT dimers,[3],only modestly affected
same,IC50,[3]; [8],0.0291 ± 0.00831 µM
same,IC50,[3]; [9],0.0549 ± 0.0165 µM
same,BRAF^WT nH (Hill slope),"[3]; four-parameter fit, 200 μM ATP",−2.3
same,IC50,"[3]; read-out: IC50 of BRAF^WT at 100 μM ATP, 100 μM ATP",0.0382 ± 0.0114 µM
same,CRAF^SSDD IC50,[4],single-digit nanomolar
same,CRAF^SSDD nH (Hill slope),[4],−2.6
same,IC50,[4],0.00605 ± 0.00241 µM
